Assay results reported in ChEMBL document CHEMBL1151371, “Plant Anticancer Agents. XI. 2,6-Dimethoxybenzoquinone as a Cytotoxic Constituent of Tibouchina pulchra” (1981).
Values after ≈ are worked out from the molar mass of the structure shown.

Tested on: KB
Assay: Cytotoxicity against human KB cells
Format: functional
Settings: read-out: ED50 (the source's name)

For `COC1=CC(=O)C=C(OC)C1=O` [2,6-DIMETHOXYQUINONE], the EC50 was 3.1 µg/mL (≈ 18.4 µM).
